Experimental data taken from PubChem BioAssay (NCI).
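Here, GI50 denotes the concentration required for 50% inhibition of growth. At the TGI there is no net growth.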

Key:
Assay in all cases: NCI tumour cell line growth inhibition, 384-well format
SNB-19 CNS = test system: SNB-19 CNS
HCC-2998 colon = test system: HCC-2998 colon
SN12C renal = test system: SN12C renal
ACHN renal = test system: ACHN renal
EKVX NSCLC = test system: EKVX NSCLC
SW-620 colon = test system: SW-620 colon
NCI-H226 lung = test system: NCI-H226 lung
CAKI-1 renal = test system: CAKI-1 renal
KM12 colon = test system: KM12 colon
UACC-257 melanoma = test system: UACC-257 melanoma
PC-3 prostate = test system: PC-3 prostate
RXF 393 renal = test system: RXF 393 renal
UACC-62 melanoma = test system: UACC-62 melanoma
CCRF-CEM leukemia = test system: CCRF-CEM leukemia
T-47D breast = test system: T-47D breast
HOP-62 NSCLC = test system: HOP-62 NSCLC
OVCAR-5 ovarian = test system: OVCAR-5 ovarian
DU-145 prostate = test system: DU-145 prostate
SK-OV-3 ovarian = test system: SK-OV-3 ovarian
SF-268 CNS = test system: SF-268 CNS
SR leukemia = test system: SR leukemia
MDA-MB-435 melanoma = test system: MDA-MB-435 melanoma
SF-295 CNS = test system: SF-295 CNS
SNB-75 CNS = test system: SNB-75 CNS
OVCAR-4 ovarian = test system: OVCAR-4 ovarian
M14 melanoma = test system: M14 melanoma
RPMI-8226 leukemia = test system: RPMI-8226 leukemia
786-0 renal = test system: 786-0 renal
MDA-MB-231 breast = test system: MDA-MB-231 breast
HS 578T breast = test system: HS 578T breast
HT29 colon = test system: HT29 colon
HOP-92 NSCLC = test system: HOP-92 NSCLC
NCI-H460 NSCLC = test system: NCI-H460 NSCLC
SF-539 CNS = test system: SF-539 CNS
U251 glioblastoma = test system: U251 glioblastoma
A549 NSCLC = test system: A549 NSCLC
OVCAR-3 ovarian = test system: OVCAR-3 ovarian
TK-10 renal = test system: TK-10 renal
SK-MEL-28 melanoma = test system: SK-MEL-28 melanoma
NCI-H322M lung = test system: NCI-H322M lung
NCI-H23 lung = test system: NCI-H23 lung
SK-MEL-5 melanoma = test system: SK-MEL-5 melanoma
MALME-3M melanoma = test system: MALME-3M melanoma
IGROV1 ovarian = test system: IGROV1 ovarian
MCF7 breast = test system: MCF7 breast
SK-MEL-2 melanoma = test system: SK-MEL-2 melanoma
HL-60(TB) leukemia = test system: HL-60(TB) leukemia
A498 renal = test system: A498 renal
MDA-MB-468 breast = test system: MDA-MB-468 breast
NCI/ADR-RES ovarian = test system: NCI/ADR-RES ovarian
MOLT-4 leukemia = test system: MOLT-4 leukemia
COLO 205 colon = test system: COLO 205 colon
HCT-15 colon = test system: HCT-15 colon
BT-549 breast = test system: BT-549 breast
OVCAR-8 ovarian = test system: OVCAR-8 ovarian
NCI-H522 lung = test system: NCI-H522 lung

C/C=C/C/C=C/CCC(=O)[C@H]1O[C@H]1C(N)=O showed a GI50 (SNB-19 CNS) of 14.1 µM, a TGI (SNB-19 CNS) of 28.2 µM and a GI50 (HCC-2998 colon) of 12.7 µM. For the same compound, the TGI (HCC-2998 colon) was 25.3 µM, the GI50 (SN12C renal) was 13.4 µM and the TGI (SN12C renal) was 26.4 µM. It also gave a GI50 (ACHN renal) of 16.9 µM, a TGI (ACHN renal) of 30.7 µM and a GI50 (EKVX NSCLC) of 6.48 µM. The TGI (EKVX NSCLC) was 18.9 µM, the GI50 (SW-620 colon) was 14 µM and the TGI (SW-620 colon) was 27.3 µM. It also gave a GI50 (NCI-H226 lung) of 7.61 µM, a TGI (NCI-H226 lung) of 19.7 µM and a GI50 (CAKI-1 renal) of 14 µM. The TGI (CAKI-1 renal) was 27 µM, the GI50 (KM12 colon) was 13 µM and the TGI (KM12 colon) was 26.1 µM. The GI50 (UACC-257 melanoma) was 3.27 µM, the TGI (UACC-257 melanoma) was 9.64 µM and the GI50 (PC-3 prostate) was 11.1 µM. The TGI (PC-3 prostate) was 23.4 µM, the GI50 (RXF 393 renal) was 0.407 µM and the TGI (RXF 393 renal) was 3.86 µM. For the same compound, the GI50 (UACC-62 melanoma) was 12.8 µM, the TGI (UACC-62 melanoma) was 27.1 µM and the GI50 (CCRF-CEM leukemia) was 3.26 µM. The TGI (CCRF-CEM leukemia) was 11.3 µM, the GI50 (T-47D breast) was 5.89 µM and the TGI (T-47D breast) was 17.6 µM. It also gave a GI50 (HOP-62 NSCLC) of 1.34 µM, a TGI (HOP-62 NSCLC) of 5.19 µM and a GI50 (OVCAR-5 ovarian) of 17.6 µM. For the same compound, the TGI (OVCAR-5 ovarian) was 33.2 µM, the GI50 (DU-145 prostate) was 12.7 µM and the TGI (DU-145 prostate) was 25.4 µM. It also gave a GI50 (SK-OV-3 ovarian) of 16.7 µM, a TGI (SK-OV-3 ovarian) of 33.2 µM and a GI50 (SF-268 CNS) of 14.9 µM. The TGI (SF-268 CNS) was 30 µM, the GI50 (SR leukemia) was 2.21 µM and the TGI (SR leukemia) was 4.91 µM. For the same compound, the GI50 (MDA-MB-435 melanoma) was 16 µM, the TGI (MDA-MB-435 melanoma) was 30 µM and the GI50 (SF-295 CNS) was 11.9 µM. The TGI (SF-295 CNS) was 24.6 µM, the GI50 (SNB-75 CNS) was 2.19 µM and the TGI (SNB-75 CNS) was 7.15 µM. For the same compound, the GI50 (OVCAR-4 ovarian) was 3.76 µM, the TGI (OVCAR-4 ovarian) was 15.6 µM and the GI50 (M14 melanoma) was 12.2 µM. It also gave a TGI (M14 melanoma) of 25 µM, a GI50 (RPMI-8226 leukemia) of 2.82 µM and a TGI (RPMI-8226 leukemia) of 6.86 µM. For the same compound, the GI50 (786-0 renal) was 14.4 µM, the TGI (786-0 renal) was 28.2 µM and the GI50 (MDA-MB-231 breast) was 11.6 µM. The TGI (MDA-MB-231 breast) was 24.5 µM, the GI50 (HS 578T breast) was 8.38 µM and the TGI (HS 578T breast) was 21 µM. The GI50 (HT29 colon) was 18.1 µM, the TGI (HT29 colon) was 32.7 µM and the GI50 (HOP-92 NSCLC) was 11.5 µM. It also gave a TGI (HOP-92 NSCLC) of 23.9 µM, a GI50 (NCI-H460 NSCLC) of 12.3 µM and a TGI (NCI-H460 NSCLC) of 25 µM. For the same compound, the GI50 (SF-539 CNS) was 13.8 µM, the TGI (SF-539 CNS) was 27.5 µM and the GI50 (U251 glioblastoma) was 11.7 µM. The TGI (U251 glioblastoma) was 24.7 µM, the GI50 (A549 NSCLC) was 16.6 µM and the TGI (A549 NSCLC) was 30.4 µM. For the same compound, the GI50 (OVCAR-3 ovarian) was 12.3 µM, the TGI (OVCAR-3 ovarian) was 24.8 µM and the GI50 (TK-10 renal) was 18.1 µM. The TGI (TK-10 renal) was 32.1 µM, the GI50 (SK-MEL-28 melanoma) was 16.3 µM and the TGI (SK-MEL-28 melanoma) was 30.2 µM. It also gave a GI50 (NCI-H322M lung) of 17.8 µM, a TGI (NCI-H322M lung) of 31.9 µM and a GI50 (NCI-H23 lung) of 3.72 µM. For the same compound, the TGI (NCI-H23 lung) was 12.7 µM, the GI50 (SK-MEL-5 melanoma) was 7.25 µM and the TGI (SK-MEL-5 melanoma) was 19.8 µM. The GI50 (MALME-3M melanoma) was 12.7 µM, the TGI (MALME-3M melanoma) was 25.3 µM and the GI50 (IGROV1 ovarian) was 14.6 µM. The TGI (IGROV1 ovarian) was 28.8 µM, the GI50 (MCF7 breast) was 5.89 µM and the TGI (MCF7 breast) was 18.4 µM. The GI50 (SK-MEL-2 melanoma) was 8.59 µM, the TGI (SK-MEL-2 melanoma) was 20.3 µM and the GI50 (HL-60(TB) leukemia) was 7.3 µM. For the same compound, the TGI (HL-60(TB) leukemia) was 19.3 µM, the GI50 (A498 renal) was 17.7 µM and the TGI (A498 renal) was 31.7 µM. It also gave a GI50 (MDA-MB-468 breast) of 2.17 µM, a TGI (MDA-MB-468 breast) of 4.86 µM and a GI50 (NCI/ADR-RES ovarian) of 15.4 µM. It also gave a TGI (NCI/ADR-RES ovarian) of 31.1 µM, a GI50 (MOLT-4 leukemia) of 4.91 µM and a TGI (MOLT-4 leukemia) of 16.9 µM. The GI50 (COLO 205 colon) was 21 µM, the TGI (COLO 205 colon) was 35.4 µM and the GI50 (HCT-15 colon) was 6.61 µM. The TGI (HCT-15 colon) was 19.6 µM, the GI50 (BT-549 breast) was 3.21 µM and the TGI (BT-549 breast) was 12.8 µM. The GI50 (OVCAR-8 ovarian) was 14.2 µM, the TGI (OVCAR-8 ovarian) was 27.7 µM and the GI50 (NCI-H522 lung) was 3.29 µM. For the same compound, the TGI (NCI-H522 lung) was 11.3 µM.
